For test [1], the system named is Apomorphine-induced agitation in rats. The test can be described thus: Inhibition of apomorphine-induced agitation in rats in combination with Compound A and Compound B (FIGS. 4, 5). The test is classed as in vivo. Conditions: Rattus norvegicus, sc. The method, then: Shown are individual scores (open and closed circles for PDE2-i at 0 and 10 mg/kg, respectively) and median scores (horizontal lines) for agitation per dose group. In FIG. 4: * p<0.05, ** p<0.01, *** p<0.001 (Bonferroni posttests 0 vs 10 mg/kg).
In FIG. 5: * p<0.05 (Dunnett's Multiple Comparison Test vs. 0 mg/kg)
Shown are individual scores (open and closed circles for PDE2-i at 0 and 10 mg/kg, respectively) and median scores (horizontal lines) for agitation per dose group. […] This is also reflected in the listed ED50 values.

Test [2] has as its system d-Amphetamine-induced hyperlocomotion in rats. In words: Inhibition of d-amphetamine-induced hyperlocomotion in rats in combination with Compound A and Compound B (FIGS. 9, 10). Type of test: in vivo. As to conditions: Rattus norvegicus, sc. The method, then:
Shown are individual values (open and closed circles for PDE2-i at 0 and 10 mg/kg, respectively) and median values (horizontal lines) for distance traveled per dose group. The dotted horizontal lines represent the criteria adopted for drug-induced effects (<5500 and <1100 cm). In FIG. 9: * p<0.05, ** p<0.01, *** p<0.001 (Bonferroni posttests 0 vs 10 mg/kg).
The dotted horizontal lines represent the critical levels for drug-induced effects (<5500 cm and <1100 cm).
Shown are individual values (open and closed circles for PDE2-i at 0 and 10 mg/kg, respectively) and median values (horizontal lines) for distance traveled per dose group. The dotted horizontal lines represent the criteria adopted for drug-induced effects (<5500 and <1100 cm). […] This is also reflected in the listed ED50 values.

For test [3] the test system is unchanged. In words: d-Amphetamine-induced hyperlocomotion in rats: potentiation of the effect of MP-10. Type of test: in vivo, rat. As to conditions: SC, d-amphetamine (1.25 mg/kg, s.c.) + MP-10 (2.5 mg/kg, s.c.).
In test [4] the test system is cAMP and cGMP levels in the rat brain (hippocampus and striatum). Conditions: in vivo.
Test [5] deals with Rat recombinant PDE10A (rPDE10A2) (Rattus norvegicus (Rat), UniProt Q9QYJ6). In words: In vitro assay PDE10A (SPA, 3H-cAMP). Type of test: biochemical.
Sequence of Rat recombinant PDE10A (rPDE10A2) (Q9QYJ6 whole entry): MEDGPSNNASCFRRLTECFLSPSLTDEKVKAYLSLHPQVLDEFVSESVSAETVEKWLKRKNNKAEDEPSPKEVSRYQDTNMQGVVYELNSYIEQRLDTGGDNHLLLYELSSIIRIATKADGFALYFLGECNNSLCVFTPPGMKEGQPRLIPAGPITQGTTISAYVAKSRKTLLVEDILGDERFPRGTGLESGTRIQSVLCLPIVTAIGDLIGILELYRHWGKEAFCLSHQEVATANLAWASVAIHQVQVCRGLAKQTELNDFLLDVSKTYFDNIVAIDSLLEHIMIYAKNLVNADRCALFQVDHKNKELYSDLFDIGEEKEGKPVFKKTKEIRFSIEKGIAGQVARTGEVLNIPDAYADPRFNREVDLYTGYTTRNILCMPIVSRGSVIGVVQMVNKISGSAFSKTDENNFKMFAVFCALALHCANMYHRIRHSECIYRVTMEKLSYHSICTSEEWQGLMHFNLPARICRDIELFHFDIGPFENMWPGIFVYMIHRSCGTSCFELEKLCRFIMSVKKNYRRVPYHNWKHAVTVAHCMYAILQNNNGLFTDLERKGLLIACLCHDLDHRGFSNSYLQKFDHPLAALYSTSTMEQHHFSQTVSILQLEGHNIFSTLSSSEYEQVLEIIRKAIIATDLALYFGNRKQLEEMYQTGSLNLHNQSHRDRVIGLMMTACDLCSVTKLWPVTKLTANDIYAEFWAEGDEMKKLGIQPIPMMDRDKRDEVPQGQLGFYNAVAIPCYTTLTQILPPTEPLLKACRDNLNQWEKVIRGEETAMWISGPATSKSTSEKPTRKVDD
The subject of test [6] is Apomorphine-induced agitation in rats. The test can be described thus: Inhibition of apomorphine-induced agitation in rats in combination with MP-10. The test is classed as in vivo, rat. Conditions: SC, MP-10 (0.63 mg/kg) + apomorphine (1.0 mg/kg) i.v. The method, then:
Inhibition of Apomorphine-induced Agitation in Rats in combination with MP-10 but the animals were simultaneously challenged with MP-10 (0.63 mg/kg) in addition to apomorphine (1.0 mg/kg) via one injection (2 ml/kg, i.v.), at a fixed time interval (standard 1 h) after s.c. or p.o. dosing of test compound or solvent. Twelve times, every 5 min, the intensity of agitation was scored 0 to 3.

The subject of test [7] is cGMP levels in the rat brain. Conditions: 2.5 mpk.
Test [8] has as its target PDE2 (Rattus norvegicus (Rat), UniProt Q01062). The test can be described thus: Potentiation of in vivo [3H]B-1a binding to PDE2 by MP-10 (ex vivo autoradiography).
Test [9] relates to Apomorphine-induced agitation in rats. The test can be described thus: Apomorphine-induced agitation: MP-10 (s.c.) dose-response with co-administered B-1a (FIGS. 1-3). Type of test: in vivo, rat.
Test [10] deals with d-Amphetamine-induced hyperlocomotion in rats. In words: d-Amphetamine-induced hyperlocomotion in rats: MP-10 or B-1a alone (FIGS. 6-8). The test is classed as in vivo, rat.
[11] abbreviates: read-out: ED50 (95% confidence limits) for reducing agitation score to <5, PDE10-i s.c., -1 h, co-treatment with B-1a 0 mg/kg.
[12] abbreviates: read-out: ED50 (95% confidence limits) for reducing agitation score to <5, PDE10-i s.c., -1 h, co-treatment with B-1a 10 mg/kg s.c.
[13] abbreviates: read-out: ED50 (95% confidence limits) for reducing agitation score to <10, PDE10-i s.c., -1 h, co-treatment with B-1a 0 mg/kg.
[14] abbreviates: read-out: ED50 (95% confidence limits) for reducing agitation score to <10, PDE10-i s.c., -1 h, co-treatment with B-1a 10 mg/kg s.c.
Setting [15] is: read-out: ED50 (95% confidence limits) for reducing agitation score to <21, PDE10-i s.c., -1 h, co-treatment with B-1a 0 mg/kg.
Setting [16] is: read-out: ED50 (95% confidence limits) for reducing agitation score to <21, PDE10-i s.c., -1 h, co-treatment with B-1a 10 mg/kg s.c.
Where [17] appears, read: read-out: ED50 (95% confidence limits) for reducing distance traveled to <1100 cm, PDE10-i s.c., -1 h, co-treatment with B-1a 0 mg/kg.
The mark [18] stands for this setting: read-out: ED50 (95% confidence limits) for reducing distance traveled to <1100 cm, PDE10-i s.c., -1 h, co-treatment with B-1a 10 mg/kg s.c.
The mark [19] stands for this setting: read-out: ED50 (95% confidence limits) for reducing distance traveled to <5500 cm, PDE10-i s.c., -1 h, co-treatment with B-1a 0 mg/kg.
Setting [20] is: read-out: ED50 (95% confidence limits) for reducing distance traveled to <5500 cm, PDE10-i s.c., -1 h, co-treatment with B-1a 10 mg/kg s.c.

Molecules are shown by their SMILES. Like-named read-outs stand apart in the source and are kept apart here.

What is called ED50 is the dose that gives a 50% effect, or the effect in half of the subjects. For the compound `COCCc1ccc(-c2c(C)nc3c(N4CCOCC4)ccnn23)cn1` [Compound A], the ED50 in test [1] (setting [11]) was not below 40 mg/kg; in test [1] (setting [12]), 12.4 mg/kg; in test [1] (setting [13]) it was 16.3 mg/kg; in [1] (setting [14]), 6.2 mg/kg; in [1] (setting [15]), 2.71 mg/kg; in test [1] (setting [16]), 3.1 mg/kg. The ED50 in test [2] (setting [17]) was more than 40 mg/kg; in test [2] (setting [18]), 6.2 mg/kg; in [2] (setting [19]), 0.89 mg/kg; in test [2] (setting [20]), 0.67 mg/kg.
Consider `Cc1nc2c(N3CCOCC3)nccn2c1-c1ccc(C2CCOCC2)nc1` [Compound B], for which the median effective dose (ED50) in [1] (setting [11]) was not below 40 mg/kg; in test [1] (setting [12]) it was 10.8 mg/kg; in test [1] (setting [13]), 32 mg/kg; in test [1] (setting [14]), 6.2 mg/kg; in test [1] (setting [15]), 2.71 mg/kg; in test [1] (setting [16]), 2.36 mg/kg. Besides, the ED50 is more than 40 mg/kg in test [2] (setting [17]), 16.3 mg/kg in test [2] (setting [18]), 3.1 mg/kg in [2] (setting [19]) and 2.04 mg/kg in test [2] (setting [20]).
In the case of `CCCCOc1ccc(Cl)c(-c2nnc3c(C)nc4ccc(CN(C)C)cc4n23)c1` [Compound B-11], the “Distance Total <2500 cm Effect” value in [3] (Time -60, dose 2.5) was 3494 cm. Also, in test [3] (Time -60, dose 10), the “Distance Total <2500 cm Effect” value turned out to be 1960 cm. In test [4], the “Hippocampus cAMP (% of Control)” value is 117 ± 20 % of Control, the “Hippocampus cGMP (% of Control)” value was 150 ± 42 % of Control, the “Striatum cAMP (% of Control)” value is recorded as 88 ± 12 % of Control and the “Striatum cGMP (% of Control)” value was 121 ± 20 % of Control. In addition, the “PIC50 PDE10” value in test [5] is listed as 5.67. The “Inh. of agitation < 10 Effect (cumulative agitation score)” value (from here on “Inh. of agitation < 10 Effect”) in [6] (Time 60, dose 2.5) is 17. Besides, the “Inh. of agitation < 10 Effect” value in [6] (Time 60, dose 10) turned out to be 7.
As for `Cn1cc(-c2ccncc2)c(-c2ccc(OCc3ccc4ccccc4n3)cc2)n1` [MP-10, 2-{[4-(1-methyl-4-pyridin-4-yl-1H-pyrazol-3-yl)phenoxy]methyl}quinoline], in test [7], the “mean nmol cGMP/ml” value amounted to 8.7 nmol cGMP/ml. The same compound displayed a fold increase in test [7] (cGMP vs vehicle) of 1.4. Moreover, the “incr vs contr (pmol cGMP/ml) (measured)” value in test [7] (increase versus control) worked out at 2.4 pmol cGMP/ml. In addition, the “in vivo [3H]B-1a binding expressed as % of binding in vehicle-treated rats, AVG” value in test [8] (dose MP-10 0.63 mpk) was determined as 80%; in test [8] (dose MP-10 2.5 mpk), 302%; in [8] (dose MP-10 10 mpk) it was 501%; in [8] (dose MP-10 40 mpk), 739%. In addition, the “effect on apomorphine-induced agitation (median score)” value in test [9] (MP-10 -1 h, s.c., with B-1a or solvent) is reported as “dose-dependently inhibited agitation”. For the same compound, the “median agitation scores <10” value in [9] (MP-10 up to 10 mg/kg, co-administered B-1a <=0.63 mg/kg) is “not obtained”. Also, in [10] (Rattus norvegicus, sc, read-out: ED50 for reducing d-amphetamine-induced hyperlocomotion to a distance <1000 cm, MP-10 (-1 h, s.c.) alone, historical data), the ED50 is more than 40 mg/kg. The “effect on d-amphetamine-induced hyperlocomotion, alone” value in test [10] (up to 40 mg/kg s.c.) is given as “almost never achieves values <2500 cm”.
For `CCCCOc1cncc(-c2nnc3c(C)nc4ccc(CN(C)C)cc4n23)c1` [Compound B-27], the “Distance Total <2500 cm Effect” value in [3] (Time -60, dose 2.5) came to 4145 cm. In [3] (Time -60, dose 10), the “Distance Total <2500 cm Effect” value turned out to be 2500 cm. In addition, in test [4], the “Hippocampus cAMP (% of Control)” value is reported as 122 ± 10 % of Control, the “Hippocampus cGMP (% of Control)” value is on record as 104 ± 32 % of Control, the “Striatum cAMP (% of Control)” value is listed as 89 ± 6 % of Control and the “Striatum cGMP (% of Control)” value is 128 ± 26 % of Control. In addition, in test [5], the “PIC50 PDE10” value is reported as 5.03. Moreover, in test [6] (Time 60, dose 10), the “Inh. of agitation < 10 Effect” value amounted to 14.
`COC(=O)[C@@H](N)CCCNC(=N)N[N+](=O)[O-]` [L-NAME]: in test [8] (pre-treatment), the “effect of pre-treatment on potentiation of [3H]B-1a binding by MP-10” value is given as “prevented the potentiation”.

Source of the values: patent US9669035B2, “Combinations comprising PDE 2 inhibitors such as 1-aryl-4-methyl-[1,2,4]triazolo-[4,3-A]]quinoxaline compounds and PDE 10 inhibitors for use in the treatment of neurological of metabolic disorders” (Janssen Pharmaceutica NV, priority 2012, dated 2017).
